From patent US8604053B2, “TRPV1 antagonists” (AbbVie Inc., priority 2008, dated 2013) come the findings set out here.

One data set has as its target T1, CYP2D6 (Homo sapiens, UniProt P10635).
T1 construct: human liver microsomes (BD Gentest); tissue BD Gentest; host or cells: human liver microsomes
The data set can be described thus: in vitro. It is filed as in vitro ADME. To be noted: microsomes; for inhibition at 25 min, 2.2 µM: human, pH 7.4. On the procedure:
(§1) Stock solutions of test compounds were assayed in 96-well format for their ability to inhibit CYP2C9, CYP2D6, or CYP3A4 mediated metabolism of test substrates. Luciferin-H was used as the substrate for CYP2C9; 3-[2-(N,N-diethyl-N-methylammonium)ethyl]-7-methoxy-4-methylcoumarin (AMMC) was used as the substrate for CYP2D6; 7-benzyloxyquiniline (BZQ) was used as the substrate for CYP3A4. For each subtype, positive controls (sulphaphenazole in the case of CYP2C9; quinidine in the case of CYP2D6, ketoconazole in the case of CYP3A4) were used to validate assay results run in duplicate.
(§2) Pre-Incubation Mixture Preparation for CYP2C9 and CYP2D6: A pre-incubation mixture was prepared by combining 100 mM phosphate buffer (9.12 mL; pH 7.4), human liver microsomes (BD Gentest, 240 itt; final concentration: 0.4 mg/mL), and 10 mM nicotinamide adenine dinucleotide phosphate in 65.4 mM MgCl2 hexahydrate (120 μL; final concentration: 125 μM and 818 μM, respectively). To this was mixture is added a ‘regeneration’ mixture (120 μL) of 333 mM glucose-6-phosphate and 40 U/mL glucose-6-phosphate dehydrogenase in 5 mM sodium citrate (final concentration: 4 mM, 0.5 U/mL, and 0.06 mM, respectively).
Substrate Mixture Preparation for CYP2D6: To a solution of 100 mM phosphate buffer, (2.80 mL, pH 7.4) was added 10 mM AMMC in acetonitrile (14 itt; final solution concentration 0.05 mM, final assay concentration 10 μM).
CYP2D6 Inhibiton Assay: To each well in the assay plate containing varying concentrations of test compound or control compound in DMSO (10 μL), Pre-Incubation Mixture (40 μL) was added to the wells and the assay plate was pre-incubated for 10 minutes at 37° C., with shaking or rocking. A pre-read of each well was performed at 390 nm and 460 nm extinction/emission. CYP2D6 Substrate Mixture (10 μL) was added to all wells and the assay plate was incubated for an additional […] at 37° C., with shaking or rocking. Final DMSO concentration was 1%. A post-read of each well was then performed at 390 nm and 460 nm extinction/emission.

A short description of data set [1]: Assessment of hemodynamic profile in anesthetized rat. It counts as in vivo. To be noted: i.v. infusion 3, 10 and 30 mg/kg/30 minutes/dose, relative to vehicle control group. How it is done: Male Sprague-Dawley rats were anesthetized with Inactin, instrumented, and allowed to stabilize. Following a 30 minute baseline period, test compound was infused via intravenous administration at 3, 10, and 30 mg/kg/30 minutes/dose in a low volume PEG-400 vehicle (1 mL/kg) or 20:40:40 dimethylacetamide:propylene glycol:PEG-400 vehicle (1 mL/kg). A separate group of animals received infusion of vehicle alone. Mean arterial pressure (MAP) and heart rate (HR) were observed and recorded.

A short description of data set [2]: Rat telemetry protocol, core body temperature. It counts as in vivo. Conditions: core body temperature of rats one hour post dosing, 100 μmol/kg p.o., relative to vehicle. On the procedure: Male, Sprague Dawley rats, 225-250 grams were anesthetized with Sevoflurane (Abbott Laboratories). Rats were placed on a heating pad and covered with a sterile surgical drape. A ventral midline abdominal incision was made and sterile cotton tip applicators were used to gently move internal tissue and expose the abdominal aorta for implantation of the telemetry catheter (Data Sciences International; TL11M2-050-PXT). Blood flow was temporarily stopped to the lower extremities (5-7 min) with Diffenbach clamps to allow the insertion of the telemetry catheter into the abdominal aorta. Once inserted, a sterile cellulose patch was placed over the catheter/aorta and secured using a small amount of tissue adhesive (Vetbond, 3M). Once catheter placement was complete, the clamps were removed and blood flow was restored to the lower extremities. Thetransmitter was placed in the intraperitoneal cavity. The transmitter suture rib was sewn into the abdominal sutures to secure it in place. The skin was closed using sterile wound clips and the animal removed from Sevoflurane. Buprenex ([…] s.c.; Phoenix) was administered for post-operative analgesia. Animals were maintained on a heating pad until ambulatory, and then individually housed with food and water ad lib. Surgical staples were removed after 7-10 days post-implantation. Rats were allowed a 2-week post-surgical recovery period before treatment with test compound. Oral dosing (p.o.) was at time zero, with rats receiving a single dose of vehicle (10% EtOH, 20% Tween-80, 70% PEG-400) or a 100 μmol/kg dose of compound dissolved in vehicle. Temperature measurements were recorded every 15 minutes for the duration of the study (24 hours).
Representative compounds described herein have the novel property of having limited transient temperature effect on core body temperature of a mammal (e.g. rats). For example, compounds tested alter core body temperature of rats by less than about +0.5° C. at about 1 hour after administration of a single dose (100 μmol/kg) of the test compounds orally, for example, in the range from about −2.5° C. to less than about +0.5° C., from about −0.5° C. to less than about +0.5° C.; or from about −0.3° C. to about +0.3° C.
The term “core body temperature” as used herein, means the temperature measured in the intraperitoneal cavity.

The next data set concerns the target T2, CYP2C9 (Homo sapiens, UniProt P11712).
T2 construct: human liver microsomes (BD Gentest); tissue BD Gentest; host or cells: human liver microsomes
The data set can be described thus: CYP2C9 inhibition assay. It counts as in vitro ADME. Conditions: human liver microsomes, substrate Luciferin-H; for inhibition at 25 min, 2.2 µM: pH 7.4, probe Luciferin-H (100 μM final), read-out: CYP2C9 % inh @ 2.2 μM. On the procedure:
as §1, §2
Substrate Mixture Preparation for CYP2C9: To a solution of 25 mM phosphate buffer, (2.16 mL, pH 7.4) was added 5 mM Luciferin-H (Promega P450 Glo Assay V8792, 240 μL; final solution concentration 0.5 mM, final assay concentration 100 μM).
CYP2C9 Inhibiton Assay: To each well in the assay plate containing varying concentrations of test compound or control compound in DMSO (10 μL) Pre-Incubation Mixture (40 itt) was added to the wells and the assay plate was pre-incubated for 10 minutes at 37° C., with shaking or rocking. CYP2C9 Substrate Mixture (10 μL) was added to all wells and the assay plate was incubated for an additional 25 minutes at 37° C., with shaking or rocking. Final DMSO concentration was 1%. Luciferin-H detection reagent (Promega kit V8792, 50 μL) was added to all wells. The plate was then vortexed at ambient temperature for between 20 minutes and 2 hours, and the luminescence of each well was then read and recorded.

T2 sequence (P11712 whole entry): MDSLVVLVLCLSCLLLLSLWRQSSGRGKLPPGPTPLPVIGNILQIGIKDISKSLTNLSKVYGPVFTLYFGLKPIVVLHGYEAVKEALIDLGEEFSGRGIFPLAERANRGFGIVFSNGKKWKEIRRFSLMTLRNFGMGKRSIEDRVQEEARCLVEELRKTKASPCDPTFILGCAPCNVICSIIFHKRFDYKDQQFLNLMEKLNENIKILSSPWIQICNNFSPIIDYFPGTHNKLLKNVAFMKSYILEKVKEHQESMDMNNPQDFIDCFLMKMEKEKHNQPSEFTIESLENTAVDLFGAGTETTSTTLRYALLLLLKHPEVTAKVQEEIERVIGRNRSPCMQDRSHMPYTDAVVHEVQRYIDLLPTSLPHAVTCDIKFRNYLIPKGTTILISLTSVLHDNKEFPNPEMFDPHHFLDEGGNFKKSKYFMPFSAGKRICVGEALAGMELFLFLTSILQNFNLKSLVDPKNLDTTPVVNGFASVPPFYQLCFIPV
T1 sequence (P10635 whole entry): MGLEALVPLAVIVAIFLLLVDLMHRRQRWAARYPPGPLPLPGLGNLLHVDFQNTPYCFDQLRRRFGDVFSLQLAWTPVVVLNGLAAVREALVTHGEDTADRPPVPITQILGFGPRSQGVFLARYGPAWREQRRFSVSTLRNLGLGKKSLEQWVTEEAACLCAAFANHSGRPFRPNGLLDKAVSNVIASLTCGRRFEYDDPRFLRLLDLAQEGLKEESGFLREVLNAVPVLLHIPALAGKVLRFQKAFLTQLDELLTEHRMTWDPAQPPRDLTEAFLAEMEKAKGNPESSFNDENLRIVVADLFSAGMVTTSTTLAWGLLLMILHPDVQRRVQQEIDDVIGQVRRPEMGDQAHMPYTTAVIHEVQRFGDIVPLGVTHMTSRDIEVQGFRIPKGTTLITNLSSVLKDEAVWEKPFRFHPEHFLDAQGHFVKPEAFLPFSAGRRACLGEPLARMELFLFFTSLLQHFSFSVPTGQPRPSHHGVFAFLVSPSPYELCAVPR

Regarding `CCC1(CC)C[C@@H](NC(=O)Nc2cccc3cnccc23)c2cc(F)ccc2O1` [Example 28, N-[(4R)-2,2-diethyl-6-fluoro-3,4-dihydro-2H-chromen-4-yl]-N′-isoquinolin-5-ylurea], the values for the inhibition at 25 min, 2.2 µM against CYP2D6 and on CYP2C9 were 98% and 35%, respectively. Further, the “Change in MAP or HR ≧ 15% ?” value in data set [1] is “Yes (An observed increase or decrease of greater than 15% in MAP (mean arterial pressure) or HR (heart rate) in one or more of the animals in the test group relative to the vehicle control group is indicated as “Yes” in the table)”. Moreover, the “Δ Temp (° C.)” value in data set [2] was −0.2 °C.
As for `Cc1cc2c(NC(=O)N[C@@H]3CC(C)(C)Oc4c(OC(F)(F)F)cccc43)cccc2cn1` [Example 94, N-[(4R)-2,2-dimethyl-8-(trifluoromethoxy)-3,4-dihydro-2H-chromen-4-yl]-N′-(3-methylisoquinolin-5-yl)urea], the inhibition at 25 min, 2.2 µM against CYP2D6 came out at 16%; at CYP2C9, 5.2%. Also, in data set [2], the “Δ Temp (° C.)” value was −2.0 °C.
On the same counts, the results for `CCC1(CC)C[C@@H](NC(=O)Nc2cccc3cnc(C)cc23)c2ccc(Cl)cc2O1` [Example 69, N-[(4R)-7-chloro-2,2-diethyl-3,4-dihydro-2H-chromen-4-yl]-N′-(3-methylisoquinolin-5-yl)urea] are 0%, 5.3% and 0.1 °C.
On the same counts, the results for `Cc1cc2c(NC(=O)N[C@@H]3CC(CF)(CF)Oc4c(OC(F)(F)F)cccc43)cccc2cn1` [Example 87, N-[(4R)-2,2-bis(fluoromethyl)-8-(trifluoromethoxy)-3,4-dihydro-2H-chromen-4-yl]-N′-(3-methylisoquinolin-5-yl)urea] are 9%, 25% and −2.0 °C.
Turning to “N-[(4R)-7-fluoro-2,2,8-trimethyl-3,4-dihydro-2H-chromen-4-yl]-N-(3-methylisoquinolin-5-yl)urea [Example 111]”, at CYP2D6, the “CYP2D6 % inh @ 2.2 μM)” value is reported as 0.87%. In data set [2], the “Δ Temp (° C.)” value is −1.3 °C. For the same compound, the “CYP2C9 % inh @ 2.2 μM” value on CYP2C9 came out at 0.36%.
Take `CCCC1(CCC)C[C@@H](NC(=O)Nc2cccc3cnc(C)cc23)c2cccc(F)c2O1` [Example 68, N-[(4R)-8-fluoro-2,2-dipropyl-3,4-dihydro-2H-chromen-4-yl]-N′-(3-methylisoquinolin-5-yl)urea]: the inhibition at 25 min, 2.2 µM turned out to be 0% against CYP2D6 and 13% on CYP2C9. Further, the “Δ Temp (° C.)” value in data set [2] amounted to 0.1 °C.
For the compound `CC1(C)C[C@@H](NC(=O)Nc2cccc3cnccc23)c2ccc(C(F)(F)F)cc2O1` [Example 34, N-[(4R)-2,2-dimethyl-7-(trifluoromethyl)-3,4-dihydro-2H-chromen-4-yl]-N′-isoquinolin-5-ylurea], the inhibition at 25 min, 2.2 µM on CYP2D6 amounted to 97%; on CYP2C9, 39%. In addition, the “Δ Temp (° C.)” value in data set [2] was −1.6 °C.
`CC1(C)C[C@@H](NC(=O)Nc2cccc3cnccc23)c2ccc(F)cc2O1` [Example 23, N-[(4R)-7-fluoro-2,2-dimethyl-3,4-dihydro-2H-chromen-4-yl]-N′-isoquinolin-5-ylurea]: the “Δ Temp (° C.)” value in data set [2] is −0.7 °C. For the same compound, at CYP2C9, the inhibition at 25 min, 2.2 µM was 56%.
In the case of `Cc1cc2c(NC(=O)N[C@@H]3C[C@](C)(CF)Oc4c(F)cccc43)cccc2cn1` [Example 126, N-[(2R,4R)-8-fluoro-2-(fluoromethyl)-2-methyl-3,4-dihydro-2H-chromen-4-yl]-N′-(3-methylisoquinolin-5-yl)urea], the inhibition at 25 min, 2.2 µM against CYP2D6 and at CYP2C9 was 0% throughout. Also, in data set [2], the “Δ Temp (° C.)” value worked out at 0.0 °C.
On to `Cc1cc2c(NC(=O)N[C@@H]3C[C@@](C)(CF)Oc4c(F)cccc43)cccc2cn1` [Example 128, N-[(2S,4R)-8-fluoro-2-(fluoromethyl)-2-methyl-3,4-dihydro-2H-chromen-4-yl]-N′-(3-methylisoquinolin-5-yl)urea], for which the inhibition at 25 min, 2.2 µM against CYP2D6 amounted to 0.23%; on CYP2C9, 9%. The “Δ Temp (° C.)” value in data set [2] is −0.1 °C.
As for `CCC1(CC)C[C@@H](NC(=O)Nc2cccc3cnc(Cl)cc23)c2cccc(F)c2O1` [Example 81, N-(3-chloroisoquinolin-5-yl)-N′-[(4R)-2,2-diethyl-8-fluoro-3,4-dihydro-2H-chromen-4-yl]urea], the results for the inhibition at 25 min, 2.2 µM against CYP2D6 and at CYP2C9 were 0.68% and 19%, respectively. Besides, in data set [2], the “Δ Temp (° C.)” value was −0.5 °C.
On the same counts, the results for `Cc1cc2c(NC(=O)N[C@@H]3CC(CF)(CF)Oc4cc(Br)ccc43)cccc2cn1` [Example 102, N-[(4R)-7-bromo-2,2-bis(fluoromethyl)-3,4-dihydro-2H-chromen-4-yl]-N′-(3-methylisoquinolin-5-yl)urea] are 20%, 13% and −0.7 °C.
Regarding `Cc1cc2c(NC(=O)N[C@@H]3CC(CF)(CF)Oc4c(Cl)cccc43)cccc2cn1` [Example 91, N-[(4R)-8-chloro-2,2-bis(fluoromethyl)-3,4-dihydro-2H-chromen-4-yl]-N′-(3-methylisoquinolin-5-yl)urea], the inhibition at 25 min, 2.2 µM against CYP2D6 was found to be 19%; at CYP2C9, 13%. Further, the “Δ Temp (° C.)” value in data set [2] was −0.1 °C.
For the compound `CC1(C)C[C@@H](NC(=O)Nc2cccc3cnccc23)c2ccccc2O1` [Example 27, N-[(4R)-2,2-dimethyl-3,4-dihydro-2H-chromen-4-yl]-N′-isoquinolin-5-ylurea], the “Δ Temp (° C.)” value in data set [2] is −1.0 °C. Also, on CYP2C9, the inhibition at 25 min, 2.2 µM was found to be 48%.
On to “N-[(4R)-6,8-difluoro-2,2-dimethyl-3,4-dihydro-2H-chromen-4-yl]-N′-isoquinolin-5-ylurea [Example 17]”, for which the “CYP2D6 % inh @ 2.2 μM)” value on CYP2D6 worked out at 100%. The “Δ Temp (° C.)” value in data set [2] was −1.5 °C. The “CYP2C9 % inh @ 2.2 μM” value at CYP2C9 is listed as 50%.
